The values below come from PMC5300203, “O-prenylated 3-carboxycoumarins as a novel class of 15-LOX-1 inhibitors” (PLoS ONE, 2017).

Read-outs that look alike come from different tables or passages of the source.

For one data set, the target named is T1, human 15-LOX-1 (Homo sapiens, UniProt P16050).
T1 construct: Human 15-LOX-1 was prepared from isolated human eosinophil based on the procedure reported by Sigal et al; from tissue; host or cells: eosinophils purified from blood of hypereosinophilic human donors; 100,000 g supernatant, 30% and 60% ammonium sulfate pellets
T1 sequence (P16050 1-662): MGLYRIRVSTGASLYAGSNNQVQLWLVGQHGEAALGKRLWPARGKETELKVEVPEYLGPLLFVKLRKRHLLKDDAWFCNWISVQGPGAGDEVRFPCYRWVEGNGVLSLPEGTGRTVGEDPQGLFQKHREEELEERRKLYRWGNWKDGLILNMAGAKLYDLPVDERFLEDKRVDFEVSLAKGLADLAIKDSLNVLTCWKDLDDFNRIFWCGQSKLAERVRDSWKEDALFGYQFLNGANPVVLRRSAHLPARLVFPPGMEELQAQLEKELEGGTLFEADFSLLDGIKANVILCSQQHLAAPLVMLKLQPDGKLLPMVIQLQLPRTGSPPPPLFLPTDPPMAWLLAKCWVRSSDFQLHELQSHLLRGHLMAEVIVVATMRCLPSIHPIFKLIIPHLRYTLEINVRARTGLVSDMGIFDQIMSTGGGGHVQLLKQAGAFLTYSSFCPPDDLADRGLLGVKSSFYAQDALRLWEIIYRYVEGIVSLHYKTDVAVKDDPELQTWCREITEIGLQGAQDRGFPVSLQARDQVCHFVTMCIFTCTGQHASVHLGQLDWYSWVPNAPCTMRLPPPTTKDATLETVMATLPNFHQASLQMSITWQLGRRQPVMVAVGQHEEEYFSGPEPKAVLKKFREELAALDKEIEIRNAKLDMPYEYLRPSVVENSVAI
The experiment in a line: Lipoxygenase inhibitory assessment (DMAB-MBTH peroxide method, linoleic acid substrate). The data set is classed as biochemical. The method, then:
The inhibitory activity of the synthetic compounds against human 15-LOX-1 was determined utilizing modified catalytic oxidative coupling of 3-methyl-2-benzothiazolinone (MBTH) with 3-(dimethylamino)benzoic acid (DMAB) as reported in previous studies. In this method, the basis for the determination of lipoxygenase activity is the measurement of peroxide concentration. Human 15-LOX-1 was prepared from isolated human eosinophil based on the procedure reported by Sigal et al. […] Because of the instability of the purified 15-LOX-1, the crude form of the enzyme was utilized. Eosinophils from blood of hypereosinophilic donors (8–11% eosinophils) were purified to more than 85% through “hypotonic lysis and centrifugation” method reported by Samoszuk.
Linoleic acid and two assay solutions (A and B) were prepared in advance.
Solution A was 50 mM DMAB in an l00 mM phosphate buffer (pH 7.0). Solution B was a mixture of l0 mM MBTH (3 mL), hemoglobin (5 mg/mL, 3 mL) in 50 mM phosphate buffer at pH 5.0 (25 ml). A linoleic acid solution was prepared by mixing 5.6 mg of linoleic acid (Sigma Aldrich, L1376) with 0.5 mL methanol and then diluted with KOH 100 mM to a final volume of 5 mL (4 mM).
In the standard assay, the sample in DMSO (12.5 μL), 15-LOX-1 (104 units/mL; 30 μL) and phosphate buffer, pH 7.0 (50 mM; 435 μL) were mixed in 48 well plate and perincubation was carried out for 10 min at 30°C. A control test was done with the same volume of ethanol. After the preincubation, linoleic acid solution (25 μL) was added to start the peroxidation reaction at 30°C, and, 10 min later, solution A (135 μL) and then solution B (65 μL) was added to start the color formation. Further, 3 min later, 100 μL of a 2% SDS solution was added to terminate the reaction. The absorbance at 598 nm was compared with the control test. These experiments were performed in triplicate. The data analysis was performed using GraphPad Prism 5.01.

Where [1] appears, read: human 15-LOX-1 from eosinophils (crude), linoleic acid, 30°C, ± SD (n = 3), read-out: IC50.
Setting [2] is: human 15-LOX-1 from eosinophils (crude), linoleic acid, 30°C, ± SD (n = 3).

Molecule `CC(C)=CCOc1ccc2oc(=O)c(C(=O)O)cc2c1` [Compound 8b, 6-(3-methylbut-2-enyloxy)-2-oxo-2H-chromene-3-carboxylic acid] came in with a melting point of 158 to 159 °C. Moreover, the IC50 at human 15-LOX-1 (setting [1]) turned out to be 227 ± 22.1 µM.
With `CC(C)=CCC/C(C)=C/COc1ccc2cc(C(=O)O)c(=O)oc2c1` [Compound 12c, 7-((E)-3,7-dimethylocta-2,6-dienyloxy)-2-oxo-2H-chromene-3-carboxylic acid], the melting point was 118 to 119 °C. At human 15-LOX-1 (setting [1]), the IC50 came to 12.1 ± 0.91 µM.
`C=CCOc1ccc2oc(=O)c(C(=O)O)cc2c1` [Compound 8a, 6-(allyloxy)-2-oxo-2H-chromene-3-carboxylic acid] gave a melting point of 167 to 168 °C. For the same molecule, the IC50 at human 15-LOX-1 (setting [1]) amounted to 296 ± 26.3 µM.
For `CC(C)=CCC/C(C)=C/CC/C(C)=C/COc1ccc2oc(=O)c(C(=O)O)cc2c1` [Compound 8d, 6-((2E,6E)-3,7,11-trimethyldodeca-2,6,10-trienyloxy)-2-oxo-2H-chromene-3-carboxylic acid], the melting point is 98 to 99 °C. This molecule registered a concentration for half-maximal inhibition (IC50) against human 15-LOX-1 of 10.4 ± 2.1 µM. In addition, at human 15-LOX-1 (3-carboxycoumarin vs farnesyloxycoumarin without carboxylic acid (d vs d')), the “lower lipoxygenase inhibitory potency compared to the corresponding carboxylate-off analog” value was 10 folds. Moreover, on human 15-LOX-1 (setting [2]), the IC50 stood at 1.0 ± 0.06 µM.
`CC(C)=CCOc1ccc2cc(C(=O)O)c(=O)oc2c1` [Compound 12b, 7-(3-methylbut-2-enyloxy)-2-oxo-2H-chromene-3-carboxylic acid] registered a melting point of 147 to 148 °C. Moreover, on human 15-LOX-1 (setting [1]), the IC50 turned out to be 81.3 ± 5.3 µM.
The molecule `CC(C)=CCC/C(C)=C/COc1ccc2oc(=O)c(C(=O)O)cc2c1` [Compound 8c, Ethyl 6-((E)-3,7-dimethylocta-2,6-dienyloxy)-2-oxo-2H-chromene-3-carboxylic acid] had a melting point of 130 to 131 °C. Besides, the half-maximal inhibitory concentration (IC50) on human 15-LOX-1 (setting [1]) turned out to be 21.5 ± 1.6 µM.
The like results for `CC(C)=CCOc1cccc2oc(=O)c(C(=O)O)cc12` [Compound 4b, 5-(3-methylbut-2-enyloxy)-2-oxo-2H-chromene-3-carboxylic acid] were, in that order, 85 to 86 °C and 62.5 ± 5.9 µM.
`C=CCOc1ccc2cc(C(=O)O)c(=O)oc2c1` [Compound 12a, 7-(allyloxy)-2-oxo-2H-chromene-3-carboxylic acid] came in with a melting point of 205 to 207 °C. Besides, the half-maximal inhibitory concentration (IC50) on human 15-LOX-1 (setting [1]) came out at 114 ± 10.1 µM.
`CC(C)=CCC/C(C)=C/COc1cccc2cc(C(=O)O)c(=O)oc12` [Compound 18c, 8-((E)-3,7-dimethylocta-2,6-dienyloxy)-2-oxo-2H-chromene-3-carboxylic acid]: the melting point lay within 100 to 101 °C. The half-inhibitory concentration (IC50) at human 15-LOX-1 (setting [1]) turned out to be 20.4 ± 2.2 µM.
In turn, `CC(C)=CCC/C(C)=C/CC/C(C)=C/COc1ccc2cc(C(=O)O)c(=O)oc2c1` [Compound 12d, 7-((2E,6E)-3,7,11-trimethyldodeca-2,6,10-trienyloxy)-2-oxo-2H-chromene-3-carboxylic acid] returned a melting point of 87 to 90 °C.
In the case of `C=CCOc1cccc2oc(=O)c(C(=O)O)cc12` [Compound 4a, 5-(allyloxy)-2-oxo-2H-chromene-3-carboxylic acid], the melting point lay within 115 to 117 °C. Besides, on human 15-LOX-1 (setting [1]), the IC50 was found to be 93.5 ± 7.6 µM.
In the case of `CC(C)=CCOc1cccc2cc(C(=O)O)c(=O)oc12` [Compound 18b, 8-(3-methylbut-2-enyloxy)-2-oxo-2H-chromene-3-carboxylic acid], the melting point lay within 143 to 144 °C. For the same molecule, the IC50 at human 15-LOX-1 (setting [1]) worked out at 263 ± 23 µM.
With `CC(C)=CCC/C(C)=C/COc1cccc2oc(=O)c(C(=O)O)cc12` [Compound 4c, 5-((E)-3,7-dimethylocta-2,6-dienyloxy)-2-oxo-2H-chromene-3-carboxylic acid], the melting point was 49 to 50 °C. Moreover, the concentration for half-maximal inhibition (IC50) at human 15-LOX-1 (setting [1]) is 4.8 ± 0.55 µM.
On to `CC(C)=CCC/C(C)=C/CC/C(C)=C/COc1cccc2oc(=O)c(C(=O)O)cc12` [Compound 4d, 5-((2E,6E)-3,7,11-trimethyldodeca-2,6,10-trienyloxy)-2-oxo-2H-chromene-3-carboxylic acid], for which the melting point was 39 to 40 °C. In addition, at human 15-LOX-1, inhibition was half-maximal at 0.74 ± 0.05 µM (IC50). Besides, the “higher lipoxygenase inhibitory activity compared to the corresponding carboxylate-off analog” value at human 15-LOX-1 (3-carboxycoumarin vs farnesyloxycoumarin without carboxylic acid (4d vs 4d')) is 2 folds. The molecule also came in with an IC50 at human 15-LOX-1 (setting [2]) of 1.6 ± 0.08 µM.
In the case of `Cc1nc(N2CCN(C)CC2)nc2c1Sc1ccccc1N2` [Compound 4-MMPB, 4-methyl-2-(4-methylpiperazinyl)pyrimido[4,5-b]benzothiazine, reference compound], the half-maximal inhibitory concentration (IC50) on human 15-LOX-1 (setting [1]) turned out to be 16.8 ± 1.1 µM.
`C=CCOc1cccc2cc(C(=O)O)c(=O)oc12` [Compound 18a, 8-(allyloxy)-2-oxo-2H-chromene-3-carboxylic acid] had a melting point of 198 to 200 °C. In addition, on human 15-LOX-1 (setting [1]), the IC50 stood at 293 ± 20.3 µM.
